# According to the NIST ThermoML archive (doi:10.1021/je200851a):
# Numbers after ± are expanded uncertainties.
# Experiment: excess molar enthalpy (molar enthalpy of mixing); xn = mol fraction of the nth substance listed
# Details: 298.15 K, 101 kPa, Liquid, Calvet calorimetry
smiles,measurement,setting,value
CCCCCCCCC [nonane] + CCO,excess molar enthalpy,x2 = 0.0507,0.087 ± 0.00191 kcal/mol
same,excess molar enthalpy,x2 = 0.1378,0.132 ± 0.00287 kcal/mol
same,excess molar enthalpy,x2 = 0.2453,0.156 ± 0.00335 kcal/mol
same,excess molar enthalpy,x2 = 0.4164,0.168 ± 0.00359 kcal/mol
same,excess molar enthalpy,x2 = 0.5022,0.162 ± 0.00359 kcal/mol
same,excess molar enthalpy,x2 = 0.586,0.156 ± 0.00335 kcal/mol
same,excess molar enthalpy,x2 = 0.6518,0.151 ± 0.00335 kcal/mol
same,excess molar enthalpy,x2 = 0.6895,0.143 ± 0.00311 kcal/mol
same,excess molar enthalpy,x2 = 0.749,0.13 ± 0.00287 kcal/mol
same,excess molar enthalpy,x2 = 0.7877,0.12 ± 0.00263 kcal/mol
same,excess molar enthalpy,x2 = 0.8433,0.1 ± 0.00215 kcal/mol
same,excess molar enthalpy,x2 = 0.8715,0.0899 ± 0.00191 kcal/mol
same,excess molar enthalpy,x2 = 0.9065,0.0715 ± 0.00167 kcal/mol
same,excess molar enthalpy,x2 = 0.9296,0.0574 ± 0.0012 kcal/mol
same,excess molar enthalpy,x2 = 0.9562,0.0387 ± 0.000956 kcal/mol
